The record followed here is ChEMBL document CHEMBL5154649, “Design, synthesis, and characterization of novel aminoalcohol quinolines with strong in vitro antimalarial activity” (Eur J Med Chem, 2022).

pIC50: −log10 of the molar value.

A word on the pIC50: it is the negative decadic logarithm of the IC50, by convention in mol/L.

One test deals with Plasmodium falciparum. As to the kind of experiment: Antiplasmodial activity against CQ-resistant Plasmodium falciparum W2 assessed as inhibition of parasite growth measured after 48 hrs by SYBR Green 1 dye based fluorescence assay. It is filed as functional, organism-based. As to conditions: W2, 48 h.
For `C[C@H](CO)NC[C@@H](O)c1cc(C(F)(F)F)nc2c(C(F)(F)F)cccc12` (single isomer, unassigned), the pIC50 is 8.00.

Consider `NCCCCCCCCCCCCNC[C@@H](O)c1cc(C(F)(F)F)nc2c(C(F)(F)F)cccc12`, for which the pIC50 is 7.36.

As to `O[C@H](CNCCCCCCCCCCCCNC[C@@H](O)c1cc(C(F)(F)F)nc2c(C(F)(F)F)cccc12)c1cc(C(F)(F)F)nc2c(C(F)(F)F)cccc12`, the pIC50 is 6.08.

As for `CC(C)(CO)NC[C@@H](O)c1cc(C(F)(F)F)nc2c(C(F)(F)F)cccc12`, the pIC50 is 6.86.

For the molecule `CC(C)(CO)NC[C@H](O)c1cc(C(F)(F)F)nc2c(C(F)(F)F)cccc12`, the pIC50 is 7.50.

As to `OC[C@H](NC[C@H](O)c1cc(C(F)(F)F)nc2c(C(F)(F)F)cccc12)c1ccccc1`, the pIC50 was 7.52.

As for `NC[C@@H](O)c1cc(C(F)(F)F)nc2c(C(F)(F)F)cccc12`, the pIC50 was 5.84.

Take `O[C@@H](CN1CCN(CCN2CCN(C[C@H](O)c3cc(C(F)(F)F)nc4c(C(F)(F)F)cccc34)CC2)CC1)c1cc(C(F)(F)F)nc2c(C(F)(F)F)cccc12`: the pIC50 is less than 6.00.

Take `OC[C@H](NC[C@@H](O)c1cc(C(F)(F)F)nc2c(C(F)(F)F)cccc12)c1ccccc1`: the pIC50 was 8.00.

Regarding `NCCNC[C@@H](O)c1cc(C(F)(F)F)nc2c(C(F)(F)F)cccc12`, the pIC50 is less than 6.00.

`O[C@H](CN1CCN(C(c2ccccc2)c2ccccc2)CC1)c1cc(C(F)(F)F)nc2c(C(F)(F)F)cccc12`: the pIC50 was 7.44.

As for `O[C@@H](CNCCCN1CCN(CCCNC[C@H](O)c2cc(C(F)(F)F)nc3c(C(F)(F)F)cccc23)CC1)c1cc(C(F)(F)F)nc2c(C(F)(F)F)cccc12`, the pIC50 was 6.49.

For the molecule `O[C@H](CNCCCN1CCN(CCCNC[C@@H](O)c2cc(C(F)(F)F)nc3c(C(F)(F)F)cccc23)CC1)c1cc(C(F)(F)F)nc2c(C(F)(F)F)cccc12`, the pIC50 was 6.27.

Take `COC[C@H](C)NC[C@H](O)c1cc(C(F)(F)F)nc2c(C(F)(F)F)cccc12`: the pIC50 is 8.29.

In the case of `COC[C@H](C)NC[C@@H](O)c1cc(C(F)(F)F)nc2c(C(F)(F)F)cccc12`, the pIC50 was 7.24.

For the molecule `O[C@@H](CN1CCN(C[C@H](O)c2cc(C(F)(F)F)nc3c(C(F)(F)F)cccc23)CC1)c1cc(C(F)(F)F)nc2c(C(F)(F)F)cccc12`, the pIC50 is less than 6.00.

For `C[C@H](CO)NC[C@H](O)c1cc(C(F)(F)F)nc2c(C(F)(F)F)cccc12`, the pIC50 is 8.00.

As to `O[C@@H](CNCCCCCCCCCCCCNC[C@H](O)c1cc(C(F)(F)F)nc2c(C(F)(F)F)cccc12)c1cc(C(F)(F)F)nc2c(C(F)(F)F)cccc12`, the pIC50 is less than 6.00.

Regarding `OC[C@@H](NC[C@H](O)c1cc(C(F)(F)F)nc2c(C(F)(F)F)cccc12)c1ccccc1`, the pIC50 was 7.80.

With `O[C@@H](CN1CCN(C(c2ccccc2)c2ccccc2)CC1)c1cc(C(F)(F)F)nc2c(C(F)(F)F)cccc12`, the pIC50 was 7.53.

Consider `O[C@H](CN1CCN(C[C@@H](O)c2cc(C(F)(F)F)nc3c(C(F)(F)F)cccc23)CC1)c1cc(C(F)(F)F)nc2c(C(F)(F)F)cccc12`, for which the pIC50 is 6.15.

The next test deals with Plasmodium falciparum. Nature of the test: Antiplasmodial activity against CQ-susceptible Plasmodium falciparum 3D7 assessed as inhibition of parasite growth measured after 48 hrs by SYBR Green 1 dye based fluorescence assay. It is filed as functional, organism-based. The note with it: 3D7, 48 h.
For the molecule `C[C@H](CO)NC[C@@H](O)c1cc(C(F)(F)F)nc2c(C(F)(F)F)cccc12` (single isomer, unassigned), the pIC50 is 7.16.

As for `NCCCCCCCCCCCCNC[C@@H](O)c1cc(C(F)(F)F)nc2c(C(F)(F)F)cccc12`, the pIC50 is 7.62.

Take `O[C@H](CNCCCCCCCCCCCCNC[C@@H](O)c1cc(C(F)(F)F)nc2c(C(F)(F)F)cccc12)c1cc(C(F)(F)F)nc2c(C(F)(F)F)cccc12`: the pIC50 is 6.60.

As for `CC(C)(CO)NC[C@@H](O)c1cc(C(F)(F)F)nc2c(C(F)(F)F)cccc12`, the pIC50 is 6.59.

`CC(C)(CO)NC[C@H](O)c1cc(C(F)(F)F)nc2c(C(F)(F)F)cccc12`: the pIC50 is 7.00.

Consider `OC[C@H](NC[C@H](O)c1cc(C(F)(F)F)nc2c(C(F)(F)F)cccc12)c1ccccc1`, for which the pIC50 is 6.87.

Turning to `O[C@@H](CN1CCN(CCN2CCN(C[C@H](O)c3cc(C(F)(F)F)nc4c(C(F)(F)F)cccc34)CC2)CC1)c1cc(C(F)(F)F)nc2c(C(F)(F)F)cccc12`, the pIC50 is 6.83.

`OC[C@H](NC[C@@H](O)c1cc(C(F)(F)F)nc2c(C(F)(F)F)cccc12)c1ccccc1`: the pIC50 is 6.99.

Turning to `NCCNC[C@@H](O)c1cc(C(F)(F)F)nc2c(C(F)(F)F)cccc12`, the pIC50 is less than 6.00.

Take `O[C@H](CN1CCN(C(c2ccccc2)c2ccccc2)CC1)c1cc(C(F)(F)F)nc2c(C(F)(F)F)cccc12`: the pIC50 was 7.41.

For `O[C@@H](CNCCCN1CCN(CCCNC[C@H](O)c2cc(C(F)(F)F)nc3c(C(F)(F)F)cccc23)CC1)c1cc(C(F)(F)F)nc2c(C(F)(F)F)cccc12`, the pIC50 is less than 6.00.

Regarding `O[C@H](CNCCCN1CCN(CCCNC[C@@H](O)c2cc(C(F)(F)F)nc3c(C(F)(F)F)cccc23)CC1)c1cc(C(F)(F)F)nc2c(C(F)(F)F)cccc12`, the pIC50 was less than 6.00.

Take `COC[C@H](C)NC[C@H](O)c1cc(C(F)(F)F)nc2c(C(F)(F)F)cccc12`: the pIC50 was 7.84.

Regarding `COC[C@H](C)NC[C@@H](O)c1cc(C(F)(F)F)nc2c(C(F)(F)F)cccc12`, the pIC50 is 7.93.

In the case of `O[C@@H](CN1CCN(C[C@H](O)c2cc(C(F)(F)F)nc3c(C(F)(F)F)cccc23)CC1)c1cc(C(F)(F)F)nc2c(C(F)(F)F)cccc12`, the pIC50 is less than 6.00.

For the molecule `C[C@H](CO)NC[C@H](O)c1cc(C(F)(F)F)nc2c(C(F)(F)F)cccc12`, the pIC50 was 7.32.

Take `O[C@@H](CNCCCCCCCCCCCCNC[C@H](O)c1cc(C(F)(F)F)nc2c(C(F)(F)F)cccc12)c1cc(C(F)(F)F)nc2c(C(F)(F)F)cccc12`: the pIC50 was less than 6.00.

On to `OC[C@@H](NC[C@H](O)c1cc(C(F)(F)F)nc2c(C(F)(F)F)cccc12)c1ccccc1`, for which the pIC50 was 6.98.

As for `O[C@@H](CN1CCN(C(c2ccccc2)c2ccccc2)CC1)c1cc(C(F)(F)F)nc2c(C(F)(F)F)cccc12`, the pIC50 is 7.27.

On to `O[C@H](CN1CCN(C[C@@H](O)c2cc(C(F)(F)F)nc3c(C(F)(F)F)cccc23)CC1)c1cc(C(F)(F)F)nc2c(C(F)(F)F)cccc12`, for which the pIC50 was 6.02.

The subject of a further test is Plasmodium falciparum. As to the kind of experiment: Selectivity index, ratio of IC50 for antiplasmodial activity against CQ-susceptible Plasmodium falciparum 3D7 to IC50 for antiplasmodial activity against CQ-resistant Plasmodium falciparum W2 by SYBR Green 1 dye based fluorescence assay. It is filed as functional.
Details: not given
On to `C[C@H](CO)NC[C@@H](O)c1cc(C(F)(F)F)nc2c(C(F)(F)F)cccc12` (single isomer, unassigned), for which the Ratio IC50 is 6.85.

`NCCCCCCCCCCCCNC[C@@H](O)c1cc(C(F)(F)F)nc2c(C(F)(F)F)cccc12`: the Ratio IC50 stood at 0.55.

`O[C@H](CNCCCCCCCCCCCCNC[C@@H](O)c1cc(C(F)(F)F)nc2c(C(F)(F)F)cccc12)c1cc(C(F)(F)F)nc2c(C(F)(F)F)cccc12`: the Ratio IC50 is 0.3.

Take `CC(C)(CO)NC[C@@H](O)c1cc(C(F)(F)F)nc2c(C(F)(F)F)cccc12`: the Ratio IC50 stood at 1.9.

`CC(C)(CO)NC[C@H](O)c1cc(C(F)(F)F)nc2c(C(F)(F)F)cccc12`: the Ratio IC50 was found to be 3.15.

With `OC[C@H](NC[C@H](O)c1cc(C(F)(F)F)nc2c(C(F)(F)F)cccc12)c1ccccc1`, the Ratio IC50 came to 4.55.

With `OC[C@H](NC[C@@H](O)c1cc(C(F)(F)F)nc2c(C(F)(F)F)cccc12)c1ccccc1`, the Ratio IC50 stood at 10.3.

For the molecule `O[C@H](CN1CCN(C(c2ccccc2)c2ccccc2)CC1)c1cc(C(F)(F)F)nc2c(C(F)(F)F)cccc12`, the Ratio IC50 was determined as 1.1.

Turning to `O[C@@H](CNCCCN1CCN(CCCNC[C@H](O)c2cc(C(F)(F)F)nc3c(C(F)(F)F)cccc23)CC1)c1cc(C(F)(F)F)nc2c(C(F)(F)F)cccc12`, the Ratio IC50 was more than 3.1.

On to `O[C@H](CNCCCN1CCN(CCCNC[C@@H](O)c2cc(C(F)(F)F)nc3c(C(F)(F)F)cccc23)CC1)c1cc(C(F)(F)F)nc2c(C(F)(F)F)cccc12`, for which the Ratio IC50 is more than 1.9.

`COC[C@H](C)NC[C@H](O)c1cc(C(F)(F)F)nc2c(C(F)(F)F)cccc12`: the Ratio IC50 turned out to be 2.8.

As to `COC[C@H](C)NC[C@@H](O)c1cc(C(F)(F)F)nc2c(C(F)(F)F)cccc12`, the Ratio IC50 turned out to be 0.2.

For `C[C@H](CO)NC[C@H](O)c1cc(C(F)(F)F)nc2c(C(F)(F)F)cccc12`, the Ratio IC50 stood at 4.8.

With `OC[C@@H](NC[C@H](O)c1cc(C(F)(F)F)nc2c(C(F)(F)F)cccc12)c1ccccc1`, the Ratio IC50 was determined as 6.5.

Turning to `O[C@@H](CN1CCN(C(c2ccccc2)c2ccccc2)CC1)c1cc(C(F)(F)F)nc2c(C(F)(F)F)cccc12`, the Ratio IC50 was found to be 1.8.

In the case of `O[C@H](CN1CCN(C[C@@H](O)c2cc(C(F)(F)F)nc3c(C(F)(F)F)cccc23)CC1)c1cc(C(F)(F)F)nc2c(C(F)(F)F)cccc12`, the Ratio IC50 stood at 1.35.
